Results published in patent US20240368133A1, “Compounds for the Treatment of Pain, in Particular, Neuropathic Pain, and/or Other Diseases or Disorders that are Associated with AT2R and/or AT2R Mediated Signaling” (Confo Therapeutics N.V., priority 2021, published 2024).

Assays:
human AT2R fused to Cb23 = human AT2R fused to Cb23 (Homo sapiens, UniProt P50052); assay: Radioligand binding assay, displacement of 125I-[Sar1, Ile8]-Angiotensin II, hAT2R Cb23; settings: displacement of 125I-[Sar1, Ile8]-Angiotensin II, human AT2R fused to Cb23, HEK-293 cell membrane preparations; read-out: Binding affinity on hAT2R_Cb23 IC50
Protocol: (§1) All synthesized ligands were evaluated in a radioligand assay by displacing ^125I-[Sar1, Ile8]-Angiotensin II (Perkin Elmer, NEX248050UC) from human AT2R fused to Cb23 or human/rodent/cynomolgus/minipig/dog WT AT2R in HEK-293 cells membrane preparations, using C21 (Vicore Pharma) and Angiotensin II (endogenous ligand) as reference. The affinity was determined using an eight-point dose-response curve, each point performed in duplicates. The compounds were also evaluated in a counterscreen binding assay for displacement of ^125I-[Sar1, Ile8]-Angiotensin II binding to human AT1R in HEK-293 cell membranes. For AT1R, the percent displacement was determined at 1 μM and […] (in duplicates) or using an eight-point dose-response curve, each point performed in duplicates with Candesartan and Losartan used as reference.
(§2) For the AT2R/AT1R binding assays, cell membranes, expressing AT2R_Cb23, AT2R or AT1R, were incubated with 0.05 nM ^125I-[Sarl, Ile8]-Ang II. The ligand competition assay was performed in a total volume of 100 μL assay buffer (50 mM Tris, 5 mM MgCl2, 1 mM EDTA, 0.1% BSA, pH 7.4), at concentrations ranging from […] to 10 μM. For each experiment, each ligand concentration was tested in duplicate. Non-specific binding (NSB) was determined by the inclusion of 10 μM unlabeled [Sarl]-Ang II (Sigma Aldrich). The reaction was initiated by the addition of radioligand, after which the plates were incubated at 25° C. for one hour. The reaction was terminated by rapid filtration using a vacuum harvester, applying six washes with 100 μL of ice-cold wash buffer (50 mM Tris.HCl, pH 7.4). The filter plates GF/C (Perkin Elmer) were pre-soaked in 0.5% PEI. The residual amount of radioactivity was determined via liquid scintillation counting. IC50 values, representing the concentration at which each ligand displaced 50% of ^125I-[Sarl, Ile8]-Ang II, were calculated using GraphPad Prism 7.02 by applying a Non-linear regression equation (variable slope, four parameters) on the data. The obtained values serve as affinity estimates for each ligand and their ability to compete against the radioligand for binding with AT2R or AT1R, respectively.

human AT1R = human AT1R (Homo sapiens (Human), UniProt P30556); assay: Counterscreen radioligand binding assay, displacement of 125I-[Sar1, Ile8]-Angiotensin II, hAT1R WT; settings: for inhibition at 1 µM / inhibition at 10 µM: 125I-[Sar1, Ile8]-Ang II, semi-quantitative score; for inhibition at 1 µM: compound at 1 μM, read-out: % Displaced radioligand at 1 μM; for inhibition at 10 µM: compound at 10 μM, read-out: % Displaced radioligand at 10 μM; for IC50: HEK-293 cell membranes, read-out: Binding affinity On hAT1R IC50
Protocol: as §1, §2

Sequence of human AT2R fused to Cb23 (P50052 whole entry, looked up, the tested form may be a part): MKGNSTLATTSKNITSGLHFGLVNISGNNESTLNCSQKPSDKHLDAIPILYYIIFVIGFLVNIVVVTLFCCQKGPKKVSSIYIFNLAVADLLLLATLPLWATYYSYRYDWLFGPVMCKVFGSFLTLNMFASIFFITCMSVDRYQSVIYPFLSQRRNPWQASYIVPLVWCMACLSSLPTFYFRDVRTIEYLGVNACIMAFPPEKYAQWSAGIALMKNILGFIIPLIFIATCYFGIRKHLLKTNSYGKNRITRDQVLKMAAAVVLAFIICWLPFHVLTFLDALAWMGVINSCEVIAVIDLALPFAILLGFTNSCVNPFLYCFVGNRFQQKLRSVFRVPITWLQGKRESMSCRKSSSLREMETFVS
Sequence of human AT1R (P30556 whole entry): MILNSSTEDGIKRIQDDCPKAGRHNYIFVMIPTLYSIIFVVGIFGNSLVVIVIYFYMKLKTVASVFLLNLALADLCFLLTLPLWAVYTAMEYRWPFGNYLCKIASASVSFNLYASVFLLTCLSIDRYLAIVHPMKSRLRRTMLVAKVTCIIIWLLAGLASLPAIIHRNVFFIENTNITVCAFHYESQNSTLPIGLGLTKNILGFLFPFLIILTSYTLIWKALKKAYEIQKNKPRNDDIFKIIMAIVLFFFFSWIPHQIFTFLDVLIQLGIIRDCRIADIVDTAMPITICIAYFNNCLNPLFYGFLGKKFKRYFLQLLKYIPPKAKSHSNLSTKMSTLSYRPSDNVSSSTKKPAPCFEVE

SMILES | IC50 (human AT2R fused to Cb23) | inhibition at 1 µM (human AT1R) | inhibition at 10 µM (human AT1R) | IC50 (human AT1R)
CCS(=O)(=O)NC(=O)c1ccccc1CN1CCN(c2nc3ccccc3s2)CC1 [Compound A-02, 2-[[4-(1,3-benzo-thiazol-2-yl)piper-azin-1-yl]methyl]-N-ethylsulfonyl-benzamide] | 6.21 µM | < 30% | < 30% | –
c1ccc(-c2nn[nH]n2)c(CN2CCN(c3nc4ccccc4s3)CC2)c1 [Compound A-03, 2-[4-[[2-(2H-tetrazol-5-yl)phen-yl]-methyl]piper-azin-1-yl]-1,3-benzothiazole] | 15.9 µM | < 30% | < 30% | –
c1ccc(N2CCN(Cc3nc4ccccc4s3)CC2)c(-c2nn[nH]n2)c1 [Compound A-05, 2-[[4-[2-(2H-tetrazol-5-yl)phen-yl]piperazin-1-yl]-methyl]-1,3-benzo-thiazole] | 34.1 µM | < 30% | < 30% | 49.9 µM
c1ccc(N2CCC(Cc3nc4ccccc4s3)CC2)c(-c2nn[nH]n2)c1 [Compound A-06, 2-[[1-[2-(2H-tetrazol-5-yl)phen-yl]-4-piperidyl]-methyl]-1,3-benzo-thiazole] | 16.5 µM | < 30% | 30 to 50% | 25.4 µM
CCOC(=O)NS(=O)(=O)c1ccc(C(F)(F)F)cc1N1CCN(Cc2nc3ccccc3n2C)CC1 [Compound A-08, ethyl N-[2-[4-[(1-methylbenzimidazol-2-yl)methyl]piperazin-1-yl]-4-(trifluoromethyl)phenyl]sulfonylcarbamate] | 6.82 µM | < 30% | < 30% | 92.1 µM
CCCCOC(=O)NS(=O)(=O)c1ccc(C)cc1N1CCN(Cc2nc3ccccc3n2C)CC1 [Compound A-11, butyl N-[4-methyl-2-[4-[(1-methylbenzimidazol-2-yl)methyl]piperazin-1-yl]phenyl]sulfonylcarbamate] | 0.959 µM | < 30% | < 30% | 37.7 µM
CCS(=O)(=O)NC(=O)c1ccccc1N1CCN(Cc2nc3ccccc3n2C)CC1 [Compound A-13, N-ethylsulfonyl-2-[4-[(1-methylbenzimidazol-2-yl)methyl]piperazin-1-yl]benzamide] | 13.6 µM | < 30% | < 30% | –
CCS(=O)(=O)NC(=O)c1ccc(OC(C)C)cc1N1CCN(Cc2nc3ccccc3n2C)CC1 [Compound A-14, N-ethylsulfonyl-4-isopropoxy-2-[4-[(1-methylbenzimidazol-2-yl)methyl]piperazin-1-yl]benzamide] | 4.82 µM | < 30% | < 30% | –
Cn1c(CN2CCN(c3cc(C(F)(F)F)ccc3-c3nn[nH]n3)CC2)nc2ccccc21 [Compound A-17, 1-methyl-2-[[4-[2-(2H-tetrazol-5-yl)-5-(trifluoromethyl)-phenyl]piperazin-1-yl]methyl]benzimid-azole] | 14.3 µM | < 30% | < 30% | –
C/C=C/c1ccc(-c2nn[nH]n2)c(N2CCN(Cc3nc4ccccc4n3C)CC2)c1 [Compound A-18, 1-methyl-2-[[4-[5-[(E)-prop-1-enyl]-2-(2H-tetrazol-5-yl)-phenyl]piperazin-1-yl]methyl]benz-imidazole] | 3.85 µM | < 30% | < 30% | –
CCCc1ccc(-c2nn[nH]n2)c(N2CCN(Cc3nc4ccccc4n3C)CC2)c1 [Compound A-19, 1-methyl-2-[[4-[5-propyl-2-(2H-tetrazol-5-yl)phen-yl]piperazin-1-yl]-methyl]benzimid-azole] | 1.17 µM | < 30% | < 30% | 47.4 µM
CC(=O)Nc1cc(-c2nn[nH]n2)c(N2CCN(Cc3nc4ccccc4s3)CC2)cc1C1CC1 [Compound A-131, N-[4-[4-(1,3-benzo-thiazol-2-ylmethyl)-piperazin-1-yl]-2-cyclopropyl-5-(2H-tetrazol-5-yl)phen-yl]acetamide] | 13.3 µM | – | – | –
CCc1cnc(-c2nn[nH]n2)c(N2CCN(Cc3nc4ccccc4s3)CC2)c1 [Compound A-141] | 22.7 µM | – | – | –
c1ccc2sc(CN3CCN(c4cc(C5CC5)ncc4-c4nn[nH]n4)CC3)nc2c1 [Compound A-144, 2-[[4-[2-cycloprop-yl-5-(2H-tetrazol-5-yl)-4-pyridyl]piper-azin-1-yl]methyl]-1,3-benzothiazole] | 14.8 µM | – | – | –
COc1cc(F)c(-c2nn[nH]n2)c(N2CCN(Cc3nc4ccccc4c(=O)[nH]3)CC2)c1 [Compound A-150, 2-[[4-[3-fluoro-5-methoxy-2-(2H-tetrazol-5-yl)phen-yl]piperazin-1-yl]-methyl]-3H-quin-azolin-4-one] | 33.8 µM | – | – | –
COc1cc(F)c(-c2nn[nH]n2)c(N2CCN(Cc3cccnn3)CC2)c1 [Compound A-155, 3-[[4-[3-fluoro-5-methoxy-2-(2H-tetrazol-5-yl)phen-yl]piperazin-1-yl]-methyl]pyridazine] | 72.8 µM | – | – | –
CC(C)Oc1cc(F)c(-c2nn[nH]n2)c(N2CCN(Cc3cccnn3)CC2)c1 [Compound A-156, 3-[[4-[3-fluoro-5-isopropoxy-2-(2H-tetrazol-5-yl)phen-yl]piperazin-1-yl]-methyl]pyridazine] | 11.6 µM | – | – | –
CC(C)Oc1ccc(-c2nn[nH]n2)c(N2CCN(Cc3cccnn3)CC2)c1F [Compound A-157, 3-[[4-[2-fluoro-3-isopropoxy-6-(2H-tetrazol-5-yl)phen-yl]piperazin-1-yl]-methyl]pyridazine] | 34.4 µM | – | – | –
CCc1cc(-c2nn[nH]n2)c(N2CCN(Cc3cccnn3)CC2)cc1OC(C)C [Compound A-158, 3-[[4-[4-ethyl-5-isopropoxy-2-(2H-tetrazol-5-yl)phen-yl]piperazin-1-yl]-methyl]pyridazine] | 44 µM | – | – | –
CCOc1cc(-c2nn[nH]n2)c(N2CCN(Cc3cccnn3)CC2)cc1OC(C)C [Compound A-162, 3-[[4-[4-ethoxy-5-isopropoxy-2-(2H-tetrazol-5-yl)phen-yl]piperazin-1-yl]-methyl]pyridazine] | 20.7 µM | – | – | –
Cc1cc(-c2nn[nH]n2)c(N2CCN(Cc3cccnn3)CC2)cc1CC(C)C [Compound A-166, 3-[[4-[5-isobutyl-4-methyl-2-(2H-tetrazol-5-yl)phen-yl]piperazin-1-yl]-methyl]pyridazine] | 22.1 µM | – | – | –
CC(C)Cc1cc(F)c(-c2nn[nH]n2)c(N2CCC(Cc3ccccn3)CC2)c1 [Compound A-237, 2-[[1-[3-fluoro-5-isobutyl-2-(2H-tetrazol-5-yl)phenyl]-4-piperidyl]methyl]pyridine] | 0.442 µM | – | – | –
CC(C)Cc1ccc(-c2nn[nH]n2)c(CN2CCN(Cc3cccnn3)CC2)c1 [Compound A-238, 3-[[4-[[5-isobutyl-2-(2H-tetrazol-5-yl)phenyl]methyl]-piperazin-1-yl]-methyl]pyridazine] | 18.8 µM | – | – | –
CCc1nc2ccccc2c(=O)n1CC1CCN(c2ccccc2-c2nn[nH]n2)CC1 [Compound A-240, 2-ethyl-3-[[1-[2-(2H-tetrazol-5-yl)-phenyl]-4-piperid-yl]methyl]quin-azolin-4-one] | 36.2 µM | – | – | –
CCc1nc2ccccc2c(=O)n1CC1CCN(c2ccccc2C(=O)NS(=O)(=O)CC)CC1 [Compound A-241, 2-[4-[(2-ethyl-4-oxo-quinazolin-3-yl)methyl]-1-piperidyl]-N-ethyl-sulfonyl-benzamide] | 42.5 µM | – | – | –
CCc1nc2ccc([N+](=O)[O-])cc2c(=O)n1CC1CCN(c2ccccc2-c2nn[nH]n2)CC1 [Compound A-242, 2-ethyl-6-nitro-3-[[1-[2-(2H-tetrazol-5-yl)phenyl]-4-piperidyl]methyl]quinazolin-4-one] | 27.7 µM | – | – | –
CCc1nc2ccc(NC(=O)C3CC3)cc2c(=O)n1CC1CCN(c2ccccc2-c2nn[nH]n2)CC1 [Compound A-247, N-[2-ethyl-4-oxo-3-[[1-[2-(2H-tetrazol-5-yl)phenyl]-4-piperidyl]methyl]-quinazolin-6-yl]-cyclopropane-carboxamide] | 35.3 µM | – | – | –
O=c1c2ccccc2nc(-c2ccccc2)n1CC1CCN(c2ccccc2-c2nnn[nH]2)CC1 [Compound A-249, 2-phenyl-3-[[1-[2-(2H-tetrazol-5-yl)phenyl]-4-piperidyl]methyl]quinazolin-4-one] | 79 µM | – | – | –
